According to PubChem BioAssay (NCI):
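Following 48 hours of exposure in 96-well plates, responses at five concentrations were used to interpolate endpoints linearly. GI50: concentration for 50% inhibition of growth. TGI is the concentration that stops growth completely.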

Tests used:
Assay in all cases: inhibition of tumour cell growth, NCI panel, 48 h
786-0 renal = tested on: 786-0 renal
A498 renal = tested on: A498 renal
A549 NSCLC = tested on: A549 NSCLC
ACHN renal = tested on: ACHN renal
BT-549 breast = tested on: BT-549 breast
CAKI-1 renal = tested on: CAKI-1 renal
CCRF-CEM leukemia = tested on: CCRF-CEM leukemia
COLO 205 colon = tested on: COLO 205 colon
DU-145 prostate = tested on: DU-145 prostate
EKVX NSCLC = tested on: EKVX NSCLC
HCC-2998 colon = tested on: HCC-2998 colon
HCT-116 colon = tested on: HCT-116 colon
HCT-15 colon = tested on: HCT-15 colon
HL-60(TB) leukemia = tested on: HL-60(TB) leukemia
HOP-62 NSCLC = tested on: HOP-62 NSCLC
HOP-92 NSCLC = tested on: HOP-92 NSCLC
HS 578T breast = tested on: HS 578T breast
HT29 colon = tested on: HT29 colon
IGROV1 ovarian = tested on: IGROV1 ovarian
K-562 leukemia = tested on: K-562 leukemia
KM12 colon = tested on: KM12 colon
LOX IMVI melanoma = tested on: LOX IMVI melanoma
M14 melanoma = tested on: M14 melanoma
MALME-3M melanoma = tested on: MALME-3M melanoma
MCF7 breast = tested on: MCF7 breast
MDA-MB-231 breast = tested on: MDA-MB-231 breast
MDA-MB-435 = tested on: MDA-MB-435
MOLT-4 leukemia = tested on: MOLT-4 leukemia
NCI-H226 lung = tested on: NCI-H226 lung
NCI-H23 lung = tested on: NCI-H23 lung
NCI-H460 lung = tested on: NCI-H460 lung
NCI-H522 lung = tested on: NCI-H522 lung
NCI/ADR-RES ovarian = tested on: NCI/ADR-RES ovarian
OVCAR-3 ovarian = tested on: OVCAR-3 ovarian
OVCAR-4 ovarian = tested on: OVCAR-4 ovarian
OVCAR-5 ovarian = tested on: OVCAR-5 ovarian
OVCAR-8 ovarian = tested on: OVCAR-8 ovarian
PC-3 prostate = tested on: PC-3 prostate
RPMI-8226 leukemia = tested on: RPMI-8226 leukemia
RXF 393 renal = tested on: RXF 393 renal
SF-268 CNS = tested on: SF-268 CNS
SF-295 CNS = tested on: SF-295 CNS
SF-539 CNS = tested on: SF-539 CNS
SK-MEL-2 melanoma = tested on: SK-MEL-2 melanoma
SK-MEL-28 melanoma = tested on: SK-MEL-28 melanoma
SK-MEL-5 melanoma = tested on: SK-MEL-5 melanoma
SK-OV-3 ovarian = tested on: SK-OV-3 ovarian
SN12C renal = tested on: SN12C renal
SNB-19 CNS = tested on: SNB-19 CNS
SNB-75 CNS = tested on: SNB-75 CNS
SR leukemia = tested on: SR leukemia
SW-620 colon = tested on: SW-620 colon
T-47D breast = tested on: T-47D breast
TK-10 renal = tested on: TK-10 renal
U251 CNS = tested on: U251 CNS
UACC-257 melanoma = tested on: UACC-257 melanoma
UACC-62 melanoma = tested on: UACC-62 melanoma
UO-31 renal = tested on: UO-31 renal

`CCCCCn1sc(=O)n(Cc2ccc(CNC(=O)C(C)c3ccc(CC(C)C)cc3)cc2)c1=O` (stereo not given) gave a GI50 (786-0 renal) of 747 nM, a TGI (786-0 renal) of 2060 nM and a GI50 (A498 renal) of 1460 nM. The TGI (A498 renal) was 2810 nM, the GI50 (A549 NSCLC) was 1650 nM and the TGI (A549 NSCLC) was 4.26 µM. The GI50 (ACHN renal) was 498 nM, the TGI (ACHN renal) was 1730 nM and the GI50 (BT-549 breast) was 972 nM. It also gave a TGI (BT-549 breast) of 2230 nM, a GI50 (CAKI-1 renal) of 562 nM and a TGI (CAKI-1 renal) of 1920 nM. The GI50 (CCRF-CEM leukemia) was 337 nM, the GI50 (COLO 205 colon) was 598 nM and the TGI (COLO 205 colon) was 2080 nM. The GI50 (DU-145 prostate) was 1170 nM, the TGI (DU-145 prostate) was 2400 nM and the GI50 (EKVX NSCLC) was 1410 nM. The TGI (EKVX NSCLC) was 2820 nM, the GI50 (HCC-2998 colon) was 1870 nM and the TGI (HCC-2998 colon) was 3.42 µM. For the same molecule, the GI50 (HCT-116 colon) was 194 nM, the TGI (HCT-116 colon) was 720 nM and the GI50 (HCT-15 colon) was 424 nM. For the same molecule, the TGI (HCT-15 colon) was 1620 nM, the GI50 (HL-60(TB) leukemia) was 1680 nM and the TGI (HL-60(TB) leukemia) was > 20.5 µM. The GI50 (HOP-62 NSCLC) was 1410 nM, the TGI (HOP-62 NSCLC) was 3.35 µM and the GI50 (HOP-92 NSCLC) was 577 nM. For the same molecule, the TGI (HOP-92 NSCLC) was 2090 nM, the GI50 (HS 578T breast) was 1560 nM and the TGI (HS 578T breast) was 4.36 µM. For the same molecule, the GI50 (HT29 colon) was 949 nM, the TGI (HT29 colon) was 2550 nM and the GI50 (IGROV1 ovarian) was 645 nM. For the same molecule, the TGI (IGROV1 ovarian) was 2000 nM, the GI50 (K-562 leukemia) was 602 nM and the TGI (K-562 leukemia) was > 61.1 µM. It also gave a GI50 (KM12 colon) of 1590 nM, a TGI (KM12 colon) of 3.3 µM and a GI50 (LOX IMVI melanoma) of 474 nM. It also gave a TGI (LOX IMVI melanoma) of 1520 nM, a GI50 (M14 melanoma) of 631 nM and a TGI (M14 melanoma) of 1920 nM. For the same molecule, the GI50 (MALME-3M melanoma) was 1430 nM, the TGI (MALME-3M melanoma) was 2800 nM and the GI50 (MCF7 breast) was 560 nM. The TGI (MCF7 breast) was 2260 nM, the GI50 (MDA-MB-231 breast) was 1180 nM and the TGI (MDA-MB-231 breast) was 2460 nM. It also gave a GI50 (MDA-MB-435) of 876 nM, a TGI (MDA-MB-435) of 2170 nM and a GI50 (MOLT-4 leukemia) of 848 nM. For the same molecule, the TGI (MOLT-4 leukemia) was > 22.5 µM, the GI50 (NCI-H226 lung) was 1300 nM and the TGI (NCI-H226 lung) was 2670 nM. The GI50 (NCI-H23 lung) was 1450 nM, the TGI (NCI-H23 lung) was 2960 nM and the GI50 (NCI-H460 lung) was 1460 nM. It also gave a TGI (NCI-H460 lung) of 3.07 µM, a GI50 (NCI-H522 lung) of 162 nM and a TGI (NCI-H522 lung) of 2110 nM. For the same molecule, the GI50 (NCI/ADR-RES ovarian) was 1650 nM, the TGI (NCI/ADR-RES ovarian) was 5.54 µM and the GI50 (OVCAR-3 ovarian) was 488 nM. For the same molecule, the TGI (OVCAR-3 ovarian) was 1630 nM, the GI50 (OVCAR-4 ovarian) was 999 nM and the TGI (OVCAR-4 ovarian) was 2420 nM. For the same molecule, the GI50 (OVCAR-5 ovarian) was 1560 nM, the TGI (OVCAR-5 ovarian) was 3.19 µM and the GI50 (OVCAR-8 ovarian) was 1090 nM. It also gave a TGI (OVCAR-8 ovarian) of 2730 nM, a GI50 (PC-3 prostate) of 876 nM and a TGI (PC-3 prostate) of 2470 nM. The GI50 (RPMI-8226 leukemia) was 353 nM, the TGI (RPMI-8226 leukemia) was 2100 nM and the GI50 (RXF 393 renal) was 727 nM. The TGI (RXF 393 renal) was 1940 nM, the GI50 (SF-268 CNS) was 1520 nM and the TGI (SF-268 CNS) was 2960 nM. It also gave a GI50 (SF-295 CNS) of 1740 nM, a TGI (SF-295 CNS) of 3.92 µM and a GI50 (SF-539 CNS) of 1190 nM. The TGI (SF-539 CNS) was 2440 nM, the GI50 (SK-MEL-2 melanoma) was 1500 nM and the TGI (SK-MEL-2 melanoma) was 2980 nM. The GI50 (SK-MEL-28 melanoma) was 1430 nM, the TGI (SK-MEL-28 melanoma) was 2750 nM and the GI50 (SK-MEL-5 melanoma) was 1610 nM. For the same molecule, the TGI (SK-MEL-5 melanoma) was 2960 nM, the GI50 (SK-OV-3 ovarian) was 3.5 µM and the TGI (SK-OV-3 ovarian) was 14.7 µM. For the same molecule, the GI50 (SN12C renal) was 1100 nM, the TGI (SN12C renal) was 2370 nM and the GI50 (SNB-19 CNS) was 1550 nM. For the same molecule, the TGI (SNB-19 CNS) was 2910 nM, the GI50 (SNB-75 CNS) was 431 nM and the TGI (SNB-75 CNS) was 1860 nM. The GI50 (SR leukemia) was 452 nM, the TGI (SR leukemia) was 5.77 µM and the GI50 (SW-620 colon) was 370 nM. For the same molecule, the TGI (SW-620 colon) was 1460 nM, the GI50 (T-47D breast) was 1600 nM and the TGI (T-47D breast) was 4.05 µM. For the same molecule, the GI50 (TK-10 renal) was 736 nM, the TGI (TK-10 renal) was 2050 nM and the GI50 (U251 CNS) was 1560 nM. It also gave a TGI (U251 CNS) of 3.04 µM, a GI50 (UACC-257 melanoma) of 1480 nM and a TGI (UACC-257 melanoma) of 3.02 µM. For the same molecule, the GI50 (UACC-62 melanoma) was 1300 nM, the TGI (UACC-62 melanoma) was 2620 nM and the GI50 (UO-31 renal) was 561 nM. The TGI (UO-31 renal) was 1990 nM.
